Laboratory results taken from patent US9487813B2, “Antifungal target” (F2G LTD, priority 2009, dated 2016).

Tests used:
A. fumigatus PPTB = biological target: T1, A. fumigatus PPTB (Aspergillus fumigatus, UniProt Q4W9R0); test: fluorescence polarisation PPTB assay / high-throughput screen (CoA-Bodipy TMR transfer to ACP); type: biochemical; details: IC50 for CoA, assay carried out using unlabelled coenzyme A
T1 construct: NusA; His tag (vector-encoded, inferred from Ni-NTA purification); made in house; host or cells: E. coli BL21 (DE3)
T1 sequence (Q4W9R0 1-153): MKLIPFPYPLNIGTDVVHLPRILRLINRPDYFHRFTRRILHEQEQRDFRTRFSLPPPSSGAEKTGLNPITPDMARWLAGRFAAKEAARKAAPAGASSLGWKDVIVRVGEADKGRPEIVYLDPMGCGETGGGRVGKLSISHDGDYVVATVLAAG
Method: High-throughput fluorescent polarization screens for PPTB inhibitors were carried out in black, flat-bottom 384 well plates using the following equipment: Thermo Labsystems Multidrop 384 machine (Multidrop® 384) with dispensing cassette and plate adapter; Tecan Genesis Freedom and Tecan Te—Mo automated liquid handling robot with 235 μl tip head, plus appropriate PC/base unit/software; PerkinElmer Minitrak automated liquid handling robot with 235 μl tip head plus appropriate PC/base unit/software; and PerkinElmer Fusion-Alpha-FP HT plate reading spectrophotometer plus appropriate FP filters (Excitation filter 540 nm; Emission filter 580 nm, both filters with 20 nm bandwidth).
Buffer A: 62.5 mM Bis-Tris buffer (pH 6.75), 12.5 mM MgCl2. The final concentrations in the assay were 50 mM Bis-Tris and 10 mM MgCl2.
CoA-Bodipy TMR-ACP mix: 11.6 ml ACP (3.421 mg/ml) plus 1854.7 μl CoA-Bodipy TMR stock (see Section 3.2 above) was made up to 529.9 ml with Buffer A at 4° C.
PPTB enzyme: PPTB enzyme was typically used at 50 to 100 ng total protein/well; enzyme was used at a concentration that gave reaction linearity with respect to both time and protein concentration. This had to be determined for each enzyme batch. […]
Assays were carried out in black, flat-bottomed 384-well plates. […] The reaction was terminated by the addition of 25 μl Stop Reagent, after which plates were read in a spectrophotometer. […]

recombinant PPTB = recombinant PPTB (Aspergillus fumigatus, UniProt Q4W9R0); details: in the presence of magnesium ions and CoA-Bodipy TMR
Text: In the present work PPTB assays used a fluorescently-labelled coenzyme A molecule (CoA-Bodipy TMR), such that PPTB activity transferred the label onto the ACP. The PPTB reaction could therefore be followed by separating the products of the PPTB reaction on an SDS-PAGE gel and illuminating with UV light to see whether the ACP band had become fluorescent. For the high-throughput screen, the PPTB assays used a fluorescence polarisation approach. This measures changes in the orientation of plane-polarized light brought about by fluorophores that undergo significant molecular motion during their fluorescence lifetime. […] The reduction in rotation causes a reduction in the ability of the Bodipy TMR molecule to depolarise plane-polarised light, which can be measured.
Further experiments were carried out using fluorescence polarization to optimise the PPTB assay for high-throughput screening.

CC(C)(COP(=O)(O)OP(=O)(O)OC[C@H]1O[C@@H](n2cnc3c(N)ncnc32)[C@H](O)[C@@H]1OP(=O)(O)O)[C@@H](O)C(=O)NCCC(=O)NCCS [CoA, coenzyme A]
IC50 (A. fumigatus PPTB; plates read after 105 hours): 5.9 µM
IC50 (A. fumigatus PPTB; plates read on day one): 6.02 µM

O=C(O)CN(CCN(CC(=O)O)CC(=O)O)CC(=O)O [EDTA]
effect on the labelling reaction of ACP (recombinant PPTB): inhibited
